We go through 19 compounds from US10954214B2 (Janssen Pharmaceutica NV, priority 2016, dated 2021).

For the test, the target named is full-length MALT1 protein (Strep-MALT1(1-824)-His) (Homo sapiens (Human), UniProt Q9UDY8). Description: MALT1 Biochemical Protease Assay (Ac-LRSR-AMC substrate). The following applies: 10 nM FL MALT1, 200 μM Ac-LRSR-AMC, 4 h at RT; read-out: MALT1_Biochemical activity (Ac-LRSR-amc) IC50. As to the method: The tetrapeptide LRSR is coupled to AMC (7-amino-4-methylcoumarin) and provides a quenched, fluorescent substrate for the MALT1 protease (SM Biochemicals). […] Test compound concentrations ranged from 30 μM to 0.5 nM using 11 dilution steps (1:3). Background signal was measured from control wells containing assay buffer without enzyme which functions as low control (LC). High control (HC) values were generated using the reaction with enzyme but no compound treatment. Compounds were pre-incubated with MALT1 enzyme for 50 minutes at RT. […] The reaction was subsequently incubated for 4 h at RT and fluorescence was measured.
full-length MALT1 protein (Strep-MALT1(1-824)-His), sequence (Q9UDY8 whole entry): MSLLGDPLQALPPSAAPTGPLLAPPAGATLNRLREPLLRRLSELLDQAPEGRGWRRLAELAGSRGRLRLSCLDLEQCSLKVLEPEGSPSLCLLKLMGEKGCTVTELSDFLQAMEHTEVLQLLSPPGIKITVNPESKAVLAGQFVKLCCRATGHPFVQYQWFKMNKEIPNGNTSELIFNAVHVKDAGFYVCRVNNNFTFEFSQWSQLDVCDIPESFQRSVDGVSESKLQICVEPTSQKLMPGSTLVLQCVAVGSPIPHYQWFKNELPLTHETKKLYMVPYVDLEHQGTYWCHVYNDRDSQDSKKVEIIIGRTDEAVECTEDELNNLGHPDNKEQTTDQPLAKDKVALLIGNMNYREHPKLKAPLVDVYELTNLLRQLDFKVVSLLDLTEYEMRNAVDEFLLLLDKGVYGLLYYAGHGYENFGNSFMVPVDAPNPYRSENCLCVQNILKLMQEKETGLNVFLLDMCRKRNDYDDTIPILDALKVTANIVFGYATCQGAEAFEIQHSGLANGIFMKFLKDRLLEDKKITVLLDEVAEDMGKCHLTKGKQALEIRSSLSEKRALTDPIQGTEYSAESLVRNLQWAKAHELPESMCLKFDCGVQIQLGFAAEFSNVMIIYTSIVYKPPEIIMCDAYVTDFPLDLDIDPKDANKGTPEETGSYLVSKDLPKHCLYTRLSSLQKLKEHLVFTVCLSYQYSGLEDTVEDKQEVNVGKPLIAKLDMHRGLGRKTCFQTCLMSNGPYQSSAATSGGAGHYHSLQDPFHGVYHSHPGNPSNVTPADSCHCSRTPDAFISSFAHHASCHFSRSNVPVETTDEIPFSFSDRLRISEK
LC=Median of the low control values
An estimate of the slope of the plot in terms of the Hill coefficient was also obtained. IC50 Calculation:
[formula] With • UB=upper bound • LB=lower bound Used in “Lexis Dose Response Curve Fitting” Version 1.0.
As for `O=C(Nc1ccc(-n2cccn2)c(Cl)c1)c1cnn(-c2cccc3ccncc23)c1C(F)(F)F` [Cpd 12, N-(3-chloro-4-(1H-pyrazol-1-yl)phenyl)-1-(isoquinolin-8-yl)-5-(trifluoromethyl)-1H-pyrazole-4-carboxamide], the 50% inhibitory concentration (IC50) was found to be 4070 nM.
`N#Cc1ncc(NC(=O)c2cnn(-c3cccc4ccncc34)c2C(F)(F)F)cc1C(F)(F)F` [Cpd 13, N-(6-cyano-5-(trifluoromethyl)pyridin-3-yl)-1-(isoquinolin-8-yl)-5-(trifluoromethyl)-1H-pyrazole-4-carboxamide]: the IC50 stood at 6030 nM.
For the compound `Nc1nccc(-c2ccc(NC(=O)c3cnn(-c4cccc5ccncc45)c3C(F)(F)F)cc2Cl)n1` [Cpd 14, N-(4-(2-aminopyrimidin-4-yl)-3-chlorophenyl)-1-(isoquinolin-8-yl)-5-(trifluoromethyl)-1H-pyrazole], the IC50 amounted to 4570 nM.
In the case of `O=C(Nc1cnc(-n2cccn2)c(Cl)c1)c1cnn(-c2cccc3ccncc23)c1C(F)(F)F` [Cpd 15, N-(5-chloro-6-(1H-pyrazol-1-yl)pyridin-3-yl)-1-(isoquinolin-8-yl)-5-(trifluoromethyl)-1H-pyrazole-4-carboxamide] it was 4170 nM.
Under `O=C(Nc1cnc(N2CCCS2(=O)=O)c(Cl)c1)c1cnn(-c2cccc3ccncc23)c1C(F)(F)F` [Cpd 20, N-(5-chloro-6-(1,1-dioxidoisothiazolidin-2-yl)pyridin-3-yl)-1-(isoquinolin-8-yl)-5-(trifluoromethyl)-1H-pyrazole-4-carboxamide] stands 9550 nM; under `Cc1ncn(-c2ccc(NC(=O)c3cnn(-c4cccc5ccncc45)c3C(F)(F)F)cc2Cl)n1` [Cpd 29, N-(3-chloro-4-(3-methyl-1H-1,2,4-triazol-1-yl)phenyl)-1-(isoquinolin-8-yl)-5-(trifluoromethyl)-1H-pyrazole-4-carboxamide], 2460 nM.
Regarding `Cc1ncn(-c2ncc(NC(=O)c3cnn(-c4cccc5ccncc45)c3C(F)(F)F)cc2Cl)n1` [Cpd 30, N-(5-chloro-6-(3-methyl-1H-1,2,4-triazol-1-yl)pyridin-3-yl)-1-(isoquinolin-8-yl)-5-(trifluoromethyl)-1H-pyrazole-4-carboxamide], the IC50 was determined as 5010 nM.
Regarding `Cc1ncnn1-c1ccc(NC(=O)c2cnn(-c3cccc4ccncc34)c2C(F)(F)F)cc1Cl` [Cpd 31, N-(3-chloro-4-(5-methyl-1H-1,2,4-triazol-1-yl)phenyl)-1-(isoquinolin-8-yl)-5-(trifluoromethyl)-1H-pyrazole-4-carboxamide], the half-maximal inhibitory concentration (IC50) was found to be 8910 nM.
Consider `Cc1ccc2c(-n3ncc(C(=O)Nc4cnc(-n5nccn5)c(Cl)c4)c3C(F)(F)F)cccc2n1` [Cpd 37, N-(5-Chloro-6-(2H-1,2,3-triazol-2-yl)pyridin-3-yl)-1-(2-methylquinolin-5-yl)-5-(trifluoromethyl)-1H-pyrazole-4-carboxamide], for which the IC50 worked out at 1440 nM.
Turning to `COC(=O)c1ncc(NC(=O)c2ncc(NC(=O)c3cnn(-c4cncc5ccccc45)c3C(F)(F)F)cc2Cl)cc1Cl` [Cpd 44, Methyl 3-chloro-5-(3-chloro-5-(1-(isoquinolin-4-yl)-5-(trifluoromethyl)-1H-pyrazole-4-carboxamido)picolinamido)picolinate], the IC50 was found to be 83 nM.
For `O=C(Nc1cnc(-n2nccn2)c(Cl)c1)c1cnn(-c2cccc3ncccc23)c1` [Cpd 60, N-(5-chloro-6-(2H-1,2,3-triazol-2-yl)pyridin-3-yl)-1-(quinolin-5-yl)-1H-pyrazole-4-carboxamide], the 50% inhibitory concentration (IC50) was found to be 11500 nM.
As for `Cc1c(C(=O)Nc2cnc(-n3nccn3)c(Cl)c2)cnn1-c1ccnc2ccccc12` [Cpd 64, N-(5-chloro-6-(2H-1,2,3-triazol-2-yl)pyridin-3-yl)-5-methyl-1-(quinolin-4-yl)-1H-pyrazole-4-carboxamide], the IC50 amounted to 1150 nM.
In the case of `O=C(Nc1cnc(-n2nccn2)c(Cl)c1)c1cnn(-c2cc3ncccc3cc2F)c1C(F)(F)F` [Cpd 67, N-(5-Chloro-6-(2H-1,2,3-triazol-2-yl)pyridin-3-yl)-1-(6-fluoroquinolin-7-yl)-5-(trifluoromethyl)-1H-pyrazole-4-carboxamide] it was 2040 nM; in that of `O=C(Nc1ccc(-n2nccn2)nc1)c1cnn(-c2cncc3ccccc23)c1C(F)(F)F` [Cpd 71, N-(6-(2H-1,2,3-triazol-2-yl)pyridin-3-yl)-1-(isoquinolin-4-yl)-5-(trifluoromethyl)-1H-pyrazole-4-carboxamide], 1580 nM; in that of `O=C(Nc1cnc(-n2nccn2)c(Cl)c1)c1cnn(-c2cncc3ccccc23)c1` [Cpd 76, N-(5-chloro-6-(2H-1,2,3-triazol-2-yl)pyridin-3-yl)-1-(isoquinolin-4-yl)-1H-pyrazole-4-carboxamide], 8320 nM.
Under `N#Cc1cc(NC(=O)c2cnn(-c3cncc4ccccc34)c2C(F)(F)F)ccn1` [Cpd 77, N-(2-cyanopyridin-4-yl)-1-(isoquinolin-4-yl)-5-(trifluoromethyl)-1H-pyrazole-4-carboxamide] stands 417 nM; under `CN1CCC(Oc2ncc(NC(=O)c3cnn(-c4cncc5ccccc45)c3C(F)(F)F)cc2C#N)CC1` [Cpd 80, N-(5-cyano-6-((1-methylpiperidin-4-yl)oxy)pyridin-3-yl)-1-(isoquinolin-4-yl)-5-(trifluoromethyl)-1H-pyrazole-4-carboxamide], 724 nM.
In the case of `N#Cc1cc(NC(=O)c2cnn(-c3cncc4ccccc34)c2C(F)(F)F)cnc1C(=O)N1CCN(CCCCN)CC1` [Cpd 101, N-(6-(4-(4-aminobutyl)piperazine-1-carbonyl)-5-cyanopyridin-3-yl)-1-(isoquinolin-4-yl)-5-(trifluoromethyl)-1H-pyrazole-4-carboxamide] it was 2690 nM.
For “N-(3-chloro-4-(1H-1,2,3-triazol-1-yl)phenyl)-1-(isoquinolin-4-yl)-5-(trifluoromethyl)-1H-pyrazole-4-carboxamide [Cpd 18]”, the IC50 came to 2290 nM.

As a reminder, the IC50 is the concentration that gives 50% inhibition.
